Test results reported in article PMC11024869, “The activity of antimicrobial peptoids against multidrug-resistant ocular pathogens” (Contact lens & anterior eye : the journal of the British …, 2024).
≈ marks a conversion by molar mass, not a printed value. Non-standard residues stand in square brackets, D forms with d. Residues, ends and D or L forms follow the SMILES beside them. Nspe = C[C@H](NCC(=O)O)c1ccccc1; NDecylGly = CCCCCCCCCCNCC(=O)O; Nlys = NCCCCNCC(=O)O

How the values were obtained:
Assay type in all cases: cell-based
[1] = test system: Pseudomonas aeruginosa PA219; conditions: PA219, MHB, 24 h 37 °C
Source text: (§3) The S. pneumoniae strains used were SP04, SP06 and SP07 [46] and Streptococcus gallolyticus SV06 (all isolated from eyes of contact lens wearers during adverse events); P. aeruginosa PAO1 (which was originally isolated from a wound, and is an invasive strain containing the gene exoS) as well as isolates from microbial keratitis, PA 235 (invasive strain containing exoS), PA216 (a cytotoxic strain containing exoU), PA219 (cytotoxic strain containing exoU), PA 233 (cytotoxic strain containing exoU), with various susceptibilities to antibiotics were also used [14]. C. albicans ATCC 10231, a yeast, isolated from case of a human bronchomycosis, was also evaluated.
(§4) The peptoids’ minimum inhibitory and bactericidal concentrations (MIC and MBC) were determined using micro broth dilution methods as previously described with slight modifications, [26, 39, 49, 50], and without using acetic acid and bovine serum albumin [39]. Briefly, bacteria or yeast were suspended in Muller Hinton broth (MHB, Oxoid, Thermo Fisher Scientific, Thebarton, SA, Australia) at 0.1 OD660nm, which was equivalent to 1x10^8 colony forming units (CFU) mL^−1. This suspension was further diluted to achieve 5x10^6 CFU mL^−1. The peptoids were diluted in MHB from 250 to 0.24 μg mL^−1 in 96-well polystyrene microplates (COSTAR, Corning Incorporated, New York, NY, USA) [39]. […] This was followed by addition of 100 μL of each microbial suspensions. Wells with only bacteria or the yeast were treated as a negative control, and wells with only MHB medium were treated as a blank. The plates were incubated at 37 °C with shaking at 120 rpm for 24 h. After incubation, the media in each well was serially diluted in phosphate buffered solution and then inoculated onto tryptone soya agar (Oxoid) plates for bacteria, or Sabouraud’s dextrose agar for the yeast, and incubated at 37 °C for 18 hrs. Post incubation, the number of CFUs on the agar plates was counted.

[2] = test system: Streptococcus pneumoniae SP07; conditions: SP07, MHB, 24 h 37 °C
Source text: as §3, §4

[3] = test system: Streptococcus pneumoniae SP06; conditions: SP06, MHB, 24 h 37 °C
Source text: as §3, §4

[4] = test system: Streptococcus pneumoniae SP04; conditions: SP04, MHB, 24 h 37 °C
Source text: as §3, §4

[5] = test system: Staphylococcus aureus SA113; conditions: SA113, MHB, 24 h 37 °C
Source text: as §3, §4

human erythrocytes = experiment: In vitro assay for hemolysis, human blood
Procedure: (§1) Hemolysis caused by the peptoids was measured using 18 to 20 mL of a horse or human blood collected in EDTA-coated tubes which has been centrifuged at 500×g for 5 min. The supernatant was discarded and the pellet containing the cells were resuspended in PBS to a final volume of 20 mL. This step was repeated five times. After the final wash, the pellet was resuspended in PBS at the ratio of 1:10 (1 mL red blood cell: 9 mL PBS) to yield a final red blood cell (RBC) concentration of approximately 5 × 10^8 cells mL^−1. The concentration of RBCs was confirmed using a hemocytometer. The peptoids (stock concentration 2 mM) were diluted sequentially (two-fold dilutions) in PBS to final concentrations of […]. All the dilutions were subsequently mixed with the RBC suspension at the ratio of 1:1. MilliQ water was used as a positive control and PBS was used as a negative control in this assay. All samples were incubated at 37 °C for 3 h. Following incubation, the tubes were centrifuged at 500 x g for five mins, the supernatants were collected, transferred to wells in a 96 well plate and their optical density was measured at 540 nm. The percentage of hemolysis was calculated by dividing the absorbance of the test sample by the absorbance of the positive control, and multiplying by 100. Data are presented as the hemolysis caused by each dilution of peptoid, and as the concentration of peptoid that caused 10 % or 50 % lysis of red blood cells.
(§2) The geometric mean is the nth root of the multiplied numbers, where n is the total number of data values. A similar formula was used to calculate the selectivity ratio, but by using the concentration of peptoid that caused 10 % hemolysis.

[6] = test system: Staphylococcus aureus SA114; conditions: SA114, MHB, 24 h 37 °C
Source text: as §3, §4

[7] = test system: Candida albicans ATCC 10231; experiment: MIC/MBC (fungicidal) micro broth dilution; conditions: ATCC 10231 (yeast), MHB, 24 h 37 °C
Source text: as §3, §4

[8] = test system: Staphylococcus aureus SA117; conditions: SA117, MHB, 24 h 37 °C
Source text: as §3, §4

[9] = test system: viridans group streptococcus SV06; conditions: SV06, MHB, 24 h 37 °C
Source text: as §3, §4

[10] = test system: Pseudomonas aeruginosa PAO1; conditions: PAO1, MHB
Source text: as §3, §4

[11] = test system: Staphylococcus aureus SA34; conditions: SA34, MHB, 24 h 37 °C
Source text: as §3, §4

[12] = test system: Staphylococcus aureus SA65; conditions: SA65, MHB, 24 h 37 °C
Source text: as §3, §4

[13] = test system: Pseudomonas aeruginosa PA235; conditions: PA235, MHB, 24 h 37 °C
Source text: as §3, §4

horse erythrocytes = experiment: In vitro assay for hemolysis, horse blood
Procedure: as §1, §2

[14] = test system: Pseudomonas aeruginosa PA216; conditions: PA216, MHB, 24 h 37 °C
Source text: as §3, §4

[15] = test system: Streptococcus gallolyticus SG04; conditions: SG04, MHB, 24 h 37 °C
Source text: as §3, §4

[16] = test system: Pseudomonas aeruginosa PA233; conditions: PA233, MHB, 24 h 37 °C
Source text: All S. aureus strains used were isolated from cases of microbial keratitis (Table 1) with various susceptibilities to antibiotics. The S. pneumoniae strains used were SP04, SP06 and SP07 [46] and Streptococcus gallolyticus SV06 (all isolated from eyes of contact lens wearers during adverse events); P. aeruginosa PAO1 (which was originally isolated from a wound, and is an invasive strain containing the gene exoS) as well as isolates from microbial keratitis, PA 235 (invasive strain containing exoS), PA216 (a cytotoxic strain containing exoU), PA219 (cytotoxic strain containing exoU), PA 233 (cytotoxic strain containing exoU), with various susceptibilities to antibiotics were also used. C. albicans ATCC 10231, a yeast, isolated from case of a human bronchomycosis, was also evaluated.
The peptoids’ minimum inhibitory and bactericidal concentrations (MIC and MBC) were determined using micro broth dilution methods as previously described with slight modifications, [26, 39, 49, 50], and without using acetic acid and bovine serum albumin [39]. Briefly, bacteria or yeast were suspended in Muller Hinton broth (MHB, Oxoid, Thermo Fisher Scientific, Thebarton, SA, Australia) at 0.1 OD660nm, which was equivalent to 1x10^8 colony forming units (CFU) mL^−1. This suspension was further diluted to achieve 5x10^6 CFU mL^−1. The peptoids were diluted in MHB from 250 to 0.24 μg mL^−1 in 96-well polystyrene microplates (COSTAR, Corning Incorporated, New York, NY, USA). This range was selected to cover the range of MIC values previously reported for ESKAPE pathogens. This was followed by addition of 100 μL of each microbial suspensions. Wells with only bacteria or the yeast were treated as a negative control, and wells with only MHB medium were treated as a blank. The plates were incubated at 37 °C with shaking at 120 rpm for 24 h. After incubation, the media in each well was serially diluted in phosphate buffered solution and then inoculated onto tryptone soya agar (Oxoid) plates for bacteria, or Sabouraud’s dextrose agar for the yeast, and incubated at 37 °C for 18 hrs. Post incubation, the number of CFUs on the agar plates was counted.

In the case of `CCCCCCCCCCNCC(=O)N(CCCCN)CC(=O)N(CC(=O)N(CC(=O)N(CCCCN)CC(=O)N(CC(=O)N(CC(=O)N(CCCCN)CC(N)=O)[C@@H](C)c1ccccc1)[C@@H](C)c1ccccc1)[C@@H](C)c1ccccc1)[C@@H](C)c1ccccc1` [TM18] (H-[NDecylGly][Nlys][Nspe][Nspe][Nlys][Nspe][Nspe][Nlys]-NH2), the MIC ([1]; ≥90 % reduction in CFUs) is reported as 15 µg/mL (≈ 12.1 µM), the MBC ([1]; ≥99.99 % reduction in CFUs) is reported as 31 µg/mL (≈ 24.9 µM) and the MIC ([2]; ≥90 % reduction in CFUs) is reported as 15(12)/15(12) μg mL^−1. The MBC ([2]; ≥99.99 % reduction in CFUs) was 15(12)/15(12) μg mL^−1, the MIC ([3]; ≥90 % reduction in CFUs) was 1.9(1.6)/1.9(1.6) μg mL^−1 and the MBC ([3]; ≥99.99 % reduction in CFUs) was 1.9(1.6)/1.9(1.6) μg mL^−1. The MIC ([4]; ≥90 % reduction in CFUs) was 15(12)/15(12) μg mL^−1, the MBC ([4]; ≥99.99 % reduction in CFUs) was 15(12)/15(12) μg mL^−1 and the MIC ([5]; ≥90 % reduction in CFUs) was 1.9 µg/mL (≈ 1.53 µM). For the same compound, the MBC ([5]; ≥99.99 % reduction in CFUs) was 1.95 µg/mL (≈ 1.57 µM), the “Human HC10” value (human erythrocytes; concentration causing 10 % lysis of human red blood cells, PBS, 3 h 37 °C, OD 540 nm) was 5 µM and the “Human HC50” value (human erythrocytes; concentration causing 50 % lysis of human red blood cells, PBS, 3 h 37 °C, OD 540 nm) was 225 µM. For the same compound, the “SR human blood (ratio HC10 to geometric mean MIC)” value (human erythrocytes; selectivity ratio) was 1, the “TI human blood (ratio HC50 to geometric mean MIC)” value (human erythrocytes; therapeutic index) was 45 and the MIC ([6]; ≥90 % reduction in CFUs) was 3.9(3.1)/3.9(3.1) μg mL^−1. For the same compound, the MBC ([6]; ≥99.99 % reduction in CFUs) was 3.9(3.1)/3.9(3.1) μg mL^−1, the MIC ([7]; ≥90 % reduction in CFUs) was 3.9(3.1)/3.9(3.1) μg mL^−1 and the “MBC (minimum fungicidal concentration)” value ([7]; ≥99.99 % reduction in CFUs) was 3.9(3.1)/3.9(3.1) μg mL^−1. For the same compound, the MIC ([8]; ≥90 % reduction in CFUs) was 3.9(3.1)/3.9(3.1) μg mL^−1, the MBC ([8]; ≥99.99 % reduction in CFUs) was 3.9(3.1)/3.9(3.1) μg mL^−1 and the MIC ([9]; ≥90 % reduction in CFUs) was 15(12)/15(12) μg mL^−1. For the same compound, the MBC ([9]; ≥99.99 % reduction in CFUs) was 15(12)/15(12) μg mL^−1, the MIC ([10]; 5x10^6 CFU mL^−1, 24 h 37 °C, ≥90 % reduction in CFUs) was 15 µg/mL (≈ 12.1 µM) and the MBC ([10]; 24 h 37 °C, ≥99.99 % reduction in CFUs) was 31 µg/mL (≈ 24.9 µM). For the same compound, the MIC ([11]; ≥90 % reduction in CFUs) was 7.8(6.3)/7.8(6.3) μg mL^−1, the MBC ([11]; ≥99.99 % reduction in CFUs) was 7.8(6.3)/7.8(6.3) μg mL^−1 and the MIC ([12]; ≥90 % reduction in CFUs) was 3.9(3.1)/3.9(3.1) μg mL^−1. For the same compound, the MBC ([12]; ≥99.99 % reduction in CFUs) was 3.9(3.1)/3.9(3.1) μg mL^−1, the MIC ([13]; ≥90 % reduction in CFUs) was 7.8 µg/mL (≈ 6.27 µM) and the MBC ([13]; ≥99.99 % reduction in CFUs) was 15 µg/mL (≈ 12.1 µM). The “Horse HC10” value (horse erythrocytes; concentration causing 10 % lysis of horse red blood cells, PBS, 3 h 37 °C, OD 540 nm) was 3 µM, the “Horse HC50” value (horse erythrocytes; concentration causing 50 % lysis of horse red blood cells, PBS, 3 h 37 °C, OD 540 nm) was 110 µM and the “SR horse blood (ratio HC10 to geometric mean MIC)” value (horse erythrocytes; selectivity ratio) was 0.6. The “TI horse blood (ratio HC50 to geometric mean MIC)” value (horse erythrocytes; therapeutic index) was 22, the MIC ([14]; ≥90 % reduction in CFUs) was 15(12)/15(12) μg mL^−1 and the MBC ([14]; ≥99.99 % reduction in CFUs) was 15(12)/15(12) μg mL^−1. For the same compound, the MIC ([15]; ≥90 % reduction in CFUs) was 15(12)/1512) μg mL^−1, the MBC ([15]; ≥99.99 % reduction in CFUs) was 15(12)/1512) μg mL^−1 and the MIC ([16]; ≥90 % reduction in CFUs) was 15 µg/mL (≈ 12.1 µM). It also gave an MBC ([16]; ≥99.99 % reduction in CFUs) of 31 µg/mL (≈ 24.9 µM).
